Patent US10106556B2, “Heterocyclic compound” (TAKEDA PHARMACEUTICAL COMPANY LIMITED, priority 2015, dated 2018)

biological target: T1, His-hMAGL (recombinant polyhistidine tagged human MAGL protein) (Homo sapiens, UniProt Q99685); experiment: Measurement of MAGL inhibitory activity (arachidonic acid production from 2-arachidonylglycerol, RapidFire-mass spectrometry); format: biochemical; details: MAGL inhibitory rate at 10 μM test compound; 60 min preincubation with His-hMAGL, 2-arachidonylglycerol substrate, 10 min reaction at room temperature
T1 construct: made in house; host or cells: E. coli BL21(DE3)
T1 sequence (Q99685 1-303): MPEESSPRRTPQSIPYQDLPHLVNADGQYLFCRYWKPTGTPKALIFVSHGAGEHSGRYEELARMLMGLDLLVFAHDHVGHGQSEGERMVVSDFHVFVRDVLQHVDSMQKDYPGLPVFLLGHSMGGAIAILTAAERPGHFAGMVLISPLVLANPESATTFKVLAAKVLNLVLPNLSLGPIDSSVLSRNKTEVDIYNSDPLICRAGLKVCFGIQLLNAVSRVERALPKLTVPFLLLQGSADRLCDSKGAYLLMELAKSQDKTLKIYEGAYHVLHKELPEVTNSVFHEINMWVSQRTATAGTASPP
Summary of the method: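 Recombinant His-tagged human MAGL converted 2-arachidonylglycerol to arachidonic acid. Reactions received acetonitrile with 3 μM arachidonic acid-d8 as internal standard, and product was quantified by RapidFire SPE (C4) with negative-mode SRM mass spectrometry. Percent inhibition was calculated against compound-free and enzyme-free controls.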

Q: `O=C1COc2cc(F)c(C(=O)N3CC(OCc4cccc(C(F)F)c4)C3)cc2N1` [Example 339] was tested. Which inhibition at 10 µM did it give?
A: 103%

Q: For `O=C1COc2cc(F)c(C(=O)N3CC(OCc4cccc(OC(F)F)c4)C3)cc2N1` [Example 340], which inhibition at 10 µM is on record?
A: 100%

Q: With `O=C1COc2cc(F)c(C(=O)N3CC(OCc4ccccc4OC(F)F)C3)cc2N1` [Example 341] as the compound, how does the inhibition at 10 µM read?
A: 101%

Q: For `O=C1COc2cc(F)c(C(=O)N3CC(OCc4ccccc4Cl)C3)cc2N1` [Example 342, 6-((3-((2-chlorobenzyl)oxy)azetidin-1-yl)carbonyl)-7-fluoro-2H-1,4-benzoxazin-3(4H)-one], which inhibition at 10 µM is on record?
A: 102%

Q: With `O=C1COc2cc(F)c(C(=O)N3CC(OCc4ccc(Cl)cc4)C3)cc2N1` [Example 343, 6-((3-((4-chlorobenzyl)oxy)azetidin-1-yl)carbonyl)-7-fluoro-2H-1,4-benzoxazin-3(4H)-one] as the compound, how does the inhibition at 10 µM read?
A: 102%

Q: Which inhibition at 10 µM does the source give for `O=C1COc2cc(F)c(C(=O)N3CC(OCc4ccc5scnc5c4)C3)cc2N1` [Example 344, 6-((3-(1,3-benzothiazol-5-ylmethoxy)azetidin-1-yl)carbonyl)-7-fluoro-2H-1,4-benzoxazin-3(4H)-one] here?
A: 99%

Q: With `O=C1COc2cc(F)c(C(=O)N3CC(OCc4ccc(C(F)(F)F)cc4F)C3)cc2N1` [Example 345, 7-fluoro-6-((3-((2-fluoro-4-(trifluoromethyl)benzyl)oxy)azetidin-1-yl)carbonyl)-2H-1,4-benzoxazin-3(4H)-one] as the compound, how does the inhibition at 10 µM read?
A: 101%

Q: Which inhibition at 10 µM does the source give for `O=C1COc2cc(F)c(C(=O)N3CC(OCc4ccc5c(c4)CCCC5)C3)cc2N1` [Example 346, 7-fluoro-6-((3-(5,6,7,8-tetrahydronaphthalen-2-ylmethoxy)azetidin-1-yl)carbonyl)-2H-1,4-benzoxazin-3(4H)-one] here?
A: 101%

Q: For `COc1ccc(COC2CN(C(=O)c3cc4c(cc3F)OCC(=O)N4)C2)c(Cl)c1` [Example 347, 6-((3-((2-chloro-4-methoxybenzyl)oxy)azetidin-1-yl)carbonyl)-7-fluoro-2H-1,4-benzoxazin-3(4H)-one], which inhibition at 10 µM is on record?
A: 102%

Q: `COc1ccc(COC2CN(C(=O)c3cc4c(cc3F)OCC(=O)N4)C2)cc1F` [Example 348, 7-fluoro-6-((3-((3-fluoro-4-methoxybenzyl)oxy)azetidin-1-yl)carbonyl)-2H-1,4-benzoxazin-3(4H)-one] was tested. Which inhibition at 10 µM did it give?
A: 100%

Q: `O=C1COc2cc(F)c(C(=O)N3CC(OCc4ccc(Cl)cc4F)C3)cc2N1` [Example 349, 6-((3-((4-chloro-2-fluorobenzyl)oxy)azetidin-1-yl)carbonyl)-7-fluoro-2H-1,4-benzoxazin-3(4H)-one] was tested. Which inhibition at 10 µM did it give?
A: 100%

Q: Which inhibition at 10 µM does the source give for `Cc1ccc(COC2CN(C(=O)c3cc4c(cc3F)OCC(=O)N4)C2)c(F)c1` [Example 350, 7-fluoro-6-((3-((2-fluoro-4-methylbenzyl)oxy)azetidin-1-yl)carbonyl)-2H-1,4-benzoxazin-3(4H)-one] here?
A: 101%

Q: Which inhibition at 10 µM does the source give for `O=C1COc2cc(F)c(C(=O)N3CC(OCc4ccc(C(F)(F)F)c(F)c4)C3)cc2N1` [Example 351, 7-fluoro-6-((3-((3-fluoro-4-(trifluoromethyl)benzyl)oxy)azetidin-1-yl)carbonyl)-2H-1,4-benzoxazin-3(4H)-one] here?
A: 99%

Q: Which inhibition at 10 µM does the source give for `O=C1COc2cc(F)c(C(=O)N3CC(OCc4ccc(C(F)F)cc4F)C3)cc2N1` [Example 352, 6-((3-((4-(difluoromethyl)-2-fluorobenzyl)oxy)azetidin-1-yl)carbonyl)-7-fluoro-2H-1,4-benzoxazin-3(4H)-one] here?
A: 101%

Q: For `O=C1COc2cc(F)c(C(=O)N3CC(OCc4ccc(N5CC(F)C5)cc4Cl)C3)cc2N1` [Example 353, 6-((3-((2-chloro-4-(3-fluoroazetidin-1-yl)benzyl)oxy)azetidin-1-yl)carbonyl)-7-fluoro-2H-1,4-benzoxazin-3(4H)-one], which inhibition at 10 µM is on record?
A: 100%

Q: `CC(OC1CN(C(=O)c2cc3c(cc2F)OCC(=O)N3)C1)c1ccc(F)cc1` (stereo not drawn) [Example 354, 7-fluoro-6-((3-(1-(4-fluorophenyl)ethoxy)azetidin-1-yl)carbonyl)-2H-1,4-benzoxazin-3(4H)-one] was tested. Which inhibition at 10 µM did it give?
A: 102%

Q: With `O=C1COc2ccc(C(=O)N3CCC(C(F)(F)c4ccc(F)cc4)CC3)cc2N1` [Example 355, 6-((4-(difluoro(4-fluorophenyl)methyl)piperidin-1-yl)carbonyl)-2H-1,4-benzoxazin-3(4H)-one] as the compound, how does the inhibition at 10 µM read?
A: 101%

Q: With `O=C1COc2cc(F)c(C(=O)N3CC(CC(F)(F)c4ccc(F)cc4Cl)C3)cc2N1` [Example 356, 6-((3-(2-(2-chloro-4-fluorophenyl)-2,2-difluoroethyl)azetidin-1-yl)carbonyl)-7-fluoro-2H-1,4-benzoxazin-3(4H)-one] as the compound, how does the inhibition at 10 µM read?
A: 102%
